Consider two compounds from patent US20100069326A1, “Combination Therapies to Treat Cardio- and Cerebro-Vascular Disorders” (priority 2008, published 2010).

Like-named read-outs stand apart in the source and are kept apart here.

Assay [1] concerns Male Wistar rats with unilateral MCAO (cerebral ischemia). As to the kind of experiment: Rat stroke model (permanent MCA occlusion), infarct volume assessment. The following applies: triflusal 30 mg/kg alone, 3 days after unilateral MCAO; for Infarct volume: three days, mean±SEM. Type of assay: in vivo. How it is done:
Male Wistar rats (265-360 g) were randomly divided into four treatment groups (n=5-9 for each group). Prior to and following surgery rats were housed in single cages (12/12 h light/dark cycle) and were fed at libitum. Prior to surgery, all rats were anaesthetized with a single dose of sodium pentobarbital (60 mg/kg ip) and placed in a David Kopf stereotaxic apparatus. Rectal temperatures were monitored and maintained constant at 37° C. by a heating pad while the rats were under anesthesia. The right MCA was exposed. […] Removal of a portion of the bone and exposure and ligation of the MCA was done with the aid of an operating stereomicroscope. Immediately following surgery, rats received one of the following treatments: 30 mg/kg triflusal or 30 mg/kg triflusal and 200 mg/kg dipyridamole or 10 mg/kg triflusal and 200 mg/kg dipyridamole or vehicle only for next three days. Three days after surgery, all animals were euthanized via pentobarbital overdose and perfused transaortically first with saline which was immediately followed by a low perfusion for about 1 h with 2% solution of triphenyl-tetrazolium chloride (TTC) that is followed by 4% formaldehyde (pH 7.4). The brains were removed and coronal sections (1 mm) were cut for infarct measurement. Investigator was blind to the sample treatment. Serial brain sections were examined and the areas of infarcted tissue were measured (SigmaScan […].0, SPSS Inc., Chicago Ill., USA). In addition, the hemispheric areas of each tissue section were measured to account for any brain swelling that might have occurred following cerebral ischemia. The volume of the infarct was calculated in mm^3 by integrating the infarct sizes for each of the tissue sections that contained infarcted tissue. The 1 mm sections were photographed using a Nikon digital camera. Results are expressed as mean±SEM of each measure. The volumes of the infarcts for each of the groups were compared by Student's unpaired two-tailed t tests. Significance was set at p≦0.05. Correlations between parameters were tested by linear regression analysis

Assay [2] deals with rat middle cerebral artery occlusion (MCAO) model of stroke. The following applies: cited from earlier work; for reducing infarct size (in words): dose of 30 mg/kg, triflusal versus aspirin.
The next assay concerns cAMP phosphodiesterase. The note with it: compared with aspirin; cited from earlier work.

`CC(=O)Oc1cc(C(F)(F)F)ccc1C(=O)O` [Triflusal, 2-acetoxy-4-trifluoromethylbenzoic acid]: the Infarct volume in assay [1] is given as 73.59 ± 7.0 mm^3; in assay [1] (listed as triflusal), 73.59±7.0 mm^3. In assay [1] (vs vehicle), this compound returned an Infarct reduction of 30.72 ± 6.6%. Further, in assay [2], the “reducing infarct size (in words)” value is recorded as “equally effective”. Moreover, the “infarct reduction in the MCAO model” value in assay [2] (triflusal 10 mg/kg/day, not significant neuroprotection) is 12.56%; in assay [2] (triflusal 30 mg/kg/day, significant neuroprotection) it was 43.95%. Also, in the assay on cAMP phosphodiesterase, the “potency as inhibitor of cAMP phosphodiesterase relative to aspirin” value is on record as “five times more potent”.

Take `CC(=O)Oc1ccccc1C(=O)O` [aspirin]: the “reducing infarct size (in words)” value in assay [2] is “equally effective”.
